Results on two compounds are retold here after paper PMC7834599 (Bioorganic & Medicinal Chemistry Letters, 2020).

The target in series [1] is T1, CYP2C8 (Homo sapiens, UniProt P10632).
T1 sequence (P10632 1-490): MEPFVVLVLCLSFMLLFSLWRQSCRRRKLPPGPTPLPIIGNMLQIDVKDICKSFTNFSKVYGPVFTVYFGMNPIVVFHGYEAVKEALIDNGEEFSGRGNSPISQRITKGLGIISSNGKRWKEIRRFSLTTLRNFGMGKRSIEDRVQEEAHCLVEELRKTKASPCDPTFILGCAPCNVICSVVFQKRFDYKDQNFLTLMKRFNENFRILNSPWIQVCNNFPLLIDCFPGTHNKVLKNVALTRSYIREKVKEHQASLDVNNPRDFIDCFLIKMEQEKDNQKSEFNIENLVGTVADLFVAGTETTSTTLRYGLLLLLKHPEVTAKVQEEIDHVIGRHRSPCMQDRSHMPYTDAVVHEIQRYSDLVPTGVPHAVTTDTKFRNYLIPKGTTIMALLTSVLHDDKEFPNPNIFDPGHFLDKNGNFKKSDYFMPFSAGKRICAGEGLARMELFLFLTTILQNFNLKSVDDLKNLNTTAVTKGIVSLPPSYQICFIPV
As to the kind of experiment: CYP inhibition in human liver microsomes. It counts as in vitro ADME. On the technique in general: Liver microsomes are vesicles of endoplasmic reticulum, rich in cytochrome P450 enzymes.

Series [2] has as its target T2, AIM2 inflammasome (Homo sapiens, UniProt O14862).
T2 sequence (O14862 1-343): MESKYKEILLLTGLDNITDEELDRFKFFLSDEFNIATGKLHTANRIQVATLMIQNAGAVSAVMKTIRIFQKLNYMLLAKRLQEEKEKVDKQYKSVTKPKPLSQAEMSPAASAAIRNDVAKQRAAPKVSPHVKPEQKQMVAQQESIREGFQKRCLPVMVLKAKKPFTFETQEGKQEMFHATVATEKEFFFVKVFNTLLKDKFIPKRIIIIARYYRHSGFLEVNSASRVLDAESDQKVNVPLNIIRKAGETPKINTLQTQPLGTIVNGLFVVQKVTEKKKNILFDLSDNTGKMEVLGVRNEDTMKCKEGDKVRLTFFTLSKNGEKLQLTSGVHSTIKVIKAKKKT
The experiment in a line: Poly. The note with it: THP-1 cells, Poly (dA:dT). It is filed as cell-based.

Series [3] deals with ASC. As to the kind of experiment: ASC oligomerization assay in THP-1 cells. The note with it: LPS-ATP NLRP3 activated THP-1 cells, western blot. It counts as cell-based, Human.
Series [4] addresses CYP2C9 (Homo sapiens, UniProt P11712). The experiment in a line: CYP inhibition in human liver microsomes. It counts as in vitro ADME.
Series [5] has as its system TNF-α. The experiment in a line: TNF-α release in LPS-ATP treated THP-1 cells. It is filed as cell-based, Human.
The target of series [6] is NLRP3 inflammasome (Homo sapiens, UniProt Q96P20). As to the kind of experiment: IL-1β release assay, NLRP3 inflammasome activation in THP-1 cells. It is filed as cell-based.
Chain of NLRP3 inflammasome (Q96P20 whole entry): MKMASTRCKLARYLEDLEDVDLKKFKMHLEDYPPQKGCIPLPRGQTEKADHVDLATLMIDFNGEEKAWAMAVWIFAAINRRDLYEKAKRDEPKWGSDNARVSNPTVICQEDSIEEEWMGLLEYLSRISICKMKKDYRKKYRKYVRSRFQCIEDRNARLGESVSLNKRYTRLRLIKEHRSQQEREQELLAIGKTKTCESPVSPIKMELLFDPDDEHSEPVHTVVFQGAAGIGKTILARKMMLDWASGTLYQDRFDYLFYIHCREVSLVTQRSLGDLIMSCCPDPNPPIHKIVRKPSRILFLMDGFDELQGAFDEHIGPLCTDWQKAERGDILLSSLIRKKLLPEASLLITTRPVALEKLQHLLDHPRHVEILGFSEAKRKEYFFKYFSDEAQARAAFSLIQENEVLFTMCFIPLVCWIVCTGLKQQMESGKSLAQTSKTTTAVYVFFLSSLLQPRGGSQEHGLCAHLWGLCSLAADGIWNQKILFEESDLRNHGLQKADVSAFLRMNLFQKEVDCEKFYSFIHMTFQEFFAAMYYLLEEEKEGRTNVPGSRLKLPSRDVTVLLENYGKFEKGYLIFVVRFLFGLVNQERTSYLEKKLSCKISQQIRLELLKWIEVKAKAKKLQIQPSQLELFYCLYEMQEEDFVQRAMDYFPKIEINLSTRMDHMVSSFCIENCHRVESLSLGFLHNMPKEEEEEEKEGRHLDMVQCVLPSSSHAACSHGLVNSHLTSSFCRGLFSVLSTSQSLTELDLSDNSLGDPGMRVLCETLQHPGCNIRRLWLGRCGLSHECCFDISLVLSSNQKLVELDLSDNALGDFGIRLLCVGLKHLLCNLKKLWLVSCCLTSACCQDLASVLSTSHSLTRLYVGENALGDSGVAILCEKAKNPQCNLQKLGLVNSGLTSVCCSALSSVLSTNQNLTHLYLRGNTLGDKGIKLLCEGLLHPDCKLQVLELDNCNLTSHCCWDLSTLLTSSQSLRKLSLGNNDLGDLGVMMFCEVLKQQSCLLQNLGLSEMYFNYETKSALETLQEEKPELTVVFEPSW

Chain of CYP2C9 (P11712 whole entry): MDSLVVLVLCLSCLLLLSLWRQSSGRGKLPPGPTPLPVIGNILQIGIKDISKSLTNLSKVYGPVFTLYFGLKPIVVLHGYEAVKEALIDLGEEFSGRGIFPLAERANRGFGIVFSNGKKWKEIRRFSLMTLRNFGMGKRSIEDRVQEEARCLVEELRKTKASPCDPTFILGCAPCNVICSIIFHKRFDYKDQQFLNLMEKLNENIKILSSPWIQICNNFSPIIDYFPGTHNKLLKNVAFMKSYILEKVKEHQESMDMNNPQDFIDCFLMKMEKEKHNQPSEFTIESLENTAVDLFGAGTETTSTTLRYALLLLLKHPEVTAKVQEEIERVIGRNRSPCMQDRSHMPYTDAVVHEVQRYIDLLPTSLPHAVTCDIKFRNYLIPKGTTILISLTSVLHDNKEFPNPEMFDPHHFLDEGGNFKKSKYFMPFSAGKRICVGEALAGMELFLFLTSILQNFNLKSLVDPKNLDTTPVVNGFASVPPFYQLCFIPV

`O=C(Nc1c2c(cc3c1CCC3)CCC2)NS(=O)(=O)/C=C/c1nccs1` [Compound 7, (E)-N-((1,2,3,5,6,7-hexahydro-s-indacen-4-yl)carbamoyl)-2-(thiazol-2-yl)ethene-1-sulfonamide]: the “CYP2C8 inhibition (in words)” value in series [1] is listed as “inhibit”. Also, the “inhibition of secreted IL-1β in AIM2 inflammasome activation (in words)” value in series [2] is on record as “no effect”. In addition, the “ASC oligomerization (in words)” value in series [3] is “blocked the oligomerisation of ASC”. Further, the “CYP2C9 inhibition (in words)” value in series [4] is listed as “inhibit”. Also, the IC50 in series [5] (Homo sapiens, THP-1, read-out: TNF-α IC50) is above 10 µM. Besides, the “inhibition of secreted TNF-α (in words)” value in series [5] (THP-1 cells, LPS-ATP, up to high concentration) is recorded as “not affected”.

Consider `O=C(NS(=O)(=O)/C=C/c1nccs1)c1c2c(cc3c1OCC3)OCC2` [Compound 20], for which the 50% inhibitory concentration (IC50) in series [6] was above 1 µM. Moreover, the inhibition at 1 µM in series [6] (THP-1, read-out: inhibition of secreted IL-1β) was below 50%.

A word on the IC50: it is the concentration that inhibits the measured activity by half. The inhibition is the change of the read-out against control, counted positive when it falls.
